# Experimental data reported in patent US9249125B2, “Pyrazole derivatives as p38 MAP inhibitors” (RESPIVERT LIMITED, priority 2012, dated 2016).
# Tests used:
# [1] = target: Syk (Homo sapiens (Human), UniProt P43405); assay: Syk enzyme inhibition (FRET, Z-LYTE); assay type: biochemical
# In short: (§1)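 Z-LYTE FRET kinase assay: enzyme (3000 or 2000 ng/mL stock, respectively) preincubated 2 h at RT with compound (4–0.004 μg/mL stocks), then FRET peptide plus ATP (800 μM stock for c-Src, 60 μM for Syk) added for 1 h. Protease development 1 h; phosphorylation from coumarin/fluorescein emission ratio.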
# [2] = target: cSrc (Homo sapiens (Human), UniProt P12931); assay: c-Src enzyme inhibition (FRET, Z-LYTE); assay type: biochemical
# Chain of cSrc (P12931 whole entry, looked up): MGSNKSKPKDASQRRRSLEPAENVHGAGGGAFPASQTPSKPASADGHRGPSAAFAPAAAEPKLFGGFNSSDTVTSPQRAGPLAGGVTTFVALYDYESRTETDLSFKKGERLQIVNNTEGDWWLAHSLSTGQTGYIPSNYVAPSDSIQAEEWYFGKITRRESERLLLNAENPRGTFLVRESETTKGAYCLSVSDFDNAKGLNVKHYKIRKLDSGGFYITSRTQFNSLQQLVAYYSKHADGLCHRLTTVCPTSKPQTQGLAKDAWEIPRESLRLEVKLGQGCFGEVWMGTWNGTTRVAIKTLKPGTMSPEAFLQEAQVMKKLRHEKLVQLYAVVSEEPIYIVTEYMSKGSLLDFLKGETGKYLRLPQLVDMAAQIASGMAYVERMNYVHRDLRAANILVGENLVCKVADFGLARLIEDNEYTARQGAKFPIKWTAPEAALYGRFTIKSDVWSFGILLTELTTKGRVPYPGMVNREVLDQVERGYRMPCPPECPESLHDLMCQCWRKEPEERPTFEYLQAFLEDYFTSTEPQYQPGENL
# In short: as §1
# [3] = test system: Poly I:C-induced ICAM-1 expression in BEAS2B cells; assay: Poly I:C-induced ICAM-1 expression in BEAS2B cells; assay type: cell-based; details: Homo sapiens, BEAS-2B, read-out: Poly IC induced ICAM1 in BEAS2B IC50
# In short: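 BEAS2B human bronchial epithelial cells pre-incubated with compound for 2 hr, then transfected with 1 μg/mL poly I:C plus Oligofectamine. At 18 hr, surface ICAM-1 measured by cell-based ELISA (HRP, OD450–655). Signal corrected for cell number by crystal violet OD595.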
# [4] = test system: d-U937 cells; assay: Cell viability: MTT assay; assay type: cell-based, human; details: 1 μg/mL
# In short: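 Differentiated U937 cells were exposed to compound at 1 or 10 μg/mL either 4 h in 5% FCS RPMI1640 or 24 h in 10% FCS RPMI1640, then given MTT for 1 h, DMSO-solubilised and read at 550 nm. Percent viability loss versus 0.5% DMSO vehicle; apparent gains appear negative.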
# [5] = test system: LPS-induced IL-8 release in d-U937 cells; assay: LPS-induced IL-8 release in d-U937 cells; assay type: cell-based; details: Homo sapiens, dU937, read-out: LPS Induced Release of Cytokine in d-937 Cells IL-8 IC50
# In short: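 PMA (100 ng/mL, 48–72 hr)-differentiated U937; cpd 2 hr pre-inc; LPS 0.1 μg/mL (E. coli O111:B4) 4 hr. Supernatant TNFα/IL-8 by sandwich ELISA. IL-8 inhibition per concentration vs vehicle; REC50 from curve fit.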
# [6] = target: GSK3α (Homo sapiens (Human), UniProt P49840); assay: GSK 3α enzyme inhibition (FRET, Z-LYTE); assay type: biochemical
# Chain of GSK3α (P49840 whole entry): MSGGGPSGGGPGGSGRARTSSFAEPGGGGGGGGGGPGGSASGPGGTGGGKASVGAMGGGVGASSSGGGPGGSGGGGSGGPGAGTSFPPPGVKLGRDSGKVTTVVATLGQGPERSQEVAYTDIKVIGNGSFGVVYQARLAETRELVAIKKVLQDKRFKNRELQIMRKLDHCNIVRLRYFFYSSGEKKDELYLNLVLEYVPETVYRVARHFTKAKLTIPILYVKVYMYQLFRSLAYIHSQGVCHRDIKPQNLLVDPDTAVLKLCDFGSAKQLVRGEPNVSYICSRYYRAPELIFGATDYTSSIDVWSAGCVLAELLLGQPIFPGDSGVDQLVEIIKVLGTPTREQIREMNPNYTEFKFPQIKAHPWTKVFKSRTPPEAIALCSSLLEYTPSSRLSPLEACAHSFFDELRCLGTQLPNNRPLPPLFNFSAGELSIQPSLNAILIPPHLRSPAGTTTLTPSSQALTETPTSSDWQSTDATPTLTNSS
# In short: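 GSK3α (500 ng/mL stock) was preincubated 2 hr at RT with compound (4 to 0.004 μg/mL stocks), then FRET peptide (8 μM stock) and ATP (40 μM stock) added for 1 hr. Protease development for 1 hr cleaved unphosphorylated peptide; coumarin/fluorescein emission ratio reported phosphorylation.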
# [7] = target: p38 MAPKα (Homo sapiens (Human), UniProt Q16539); assay: p38 MAPKα enzyme inhibition (FRET, Z-LYTE); assay type: biochemical
# Chain of p38 MAPKα (Q16539 whole entry): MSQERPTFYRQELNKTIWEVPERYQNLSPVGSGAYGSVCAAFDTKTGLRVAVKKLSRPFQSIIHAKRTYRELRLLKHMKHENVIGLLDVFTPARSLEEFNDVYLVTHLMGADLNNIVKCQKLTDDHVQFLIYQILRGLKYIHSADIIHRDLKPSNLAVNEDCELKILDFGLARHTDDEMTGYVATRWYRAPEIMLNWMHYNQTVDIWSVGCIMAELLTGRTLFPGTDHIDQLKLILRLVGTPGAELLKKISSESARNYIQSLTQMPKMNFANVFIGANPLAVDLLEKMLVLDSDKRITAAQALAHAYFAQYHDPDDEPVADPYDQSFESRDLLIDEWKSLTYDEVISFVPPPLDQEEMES
# [8] = test system: LPS-induced TNFα release in d-U937 cells; assay: LPS-induced TNFα release in d-U937 cells; assay type: cell-based; details: Homo sapiens, dU937, relative to 10 μg/mL BIRB796, read-out: LPS Induced Release of Cytokine in d-937 Cells TNFα REC50
# Protocol: U937 cells, a human monocytic cell line, are differentiated into macrophage-type cells by incubation with PMA (100 ng/mL) for 48 to 72 hr. Cells are pre-incubated with final concentrations of test compound for 2 hr and are then stimulated with LPS (0.1 μg/mL) (from E. coli: O111:B4, Sigma) for 4 hr. The supernatant is collected for determination of TNFα and IL-8 concentrations by sandwich ELISA (Duo-set, R&D systems). […] The relative 50% effective concentration (REC50) is determined from the resultant concentration-response curve. The inhibition of IL-8 production is calculated at each concentration of test compound by comparison with vehicle control. […] (b) LPS-Induced TNFα/IL-8 Release in PBMC Cells
IC50 [1],IC50 [2],IC50 [5],IC50 [6],IC50 [7],EC50 [8],SMILES,IC50 [3],MTT Assay Cell viability at time point in d-U937 cells 4 h [4],MTT Assay Cell viability at time point in d-U937 cells 24 h [4]
20 nM,3 nM,1.3 nM,437 nM,67 nM,1.1 nM,"CC(C)(C)c1cc(NC(=O)Nc2ccc(Oc3ccnc(Nc4ccc5c(c4)CS(=O)(=O)C5)n3)c3ccccc23)n(-c2ccc(OCCN3CCOCC3)cc2)n1 [Example 64, 1-(3-(tert-butyl)-1-(4-(2-morpholinoethoxy)phenyl)-1H-pyrazol-5-yl)-3-(4-((2-((2,2-dioxido-1,3-dihydrobenzo[c]thiophen-5-yl)amino)pyrimidin-4-yl)oxy)naphthalen-1-yl)urea]",0.01 nM,"−ve (−ve and +ve indicate that the value is below and above respectively, the no significant effect threshold, defined as 30% inhibition at 1 μg/mL at the time point indicated.)","−ve (−ve and +ve indicate that the value is below and above respectively, the no significant effect threshold, defined as 30% inhibition at 1 μg/mL at the time point indicated.)"
180 nM,12 nM,2.2 nM,> 15700 nM,145 nM,2.2 nM,"Cc1ccc(-n2nc(C(C)(C)C)cc2NC(=O)Nc2ccc(Oc3ccnc(Nc4ccc5c(cnn5C)c4)n3)c3ccccc23)cc1 [Example 26, 1-(3-(tert-butyl)-1-(p-tolyl)-1H-pyrazol-5-yl)-3-(4-((2-((1-methyl-1H-indazol-5-yl)amino)pyrimidin-4-yl)oxy)naphthalen-1-yl)urea]",2.3 nM,"−ve (−ve and +ve indicate that the value is below and above respectively, the no significant effect threshold, defined as 30% inhibition at 1 μg/mL at the time point indicated.)","−ve (−ve and +ve indicate that the value is below and above respectively, the no significant effect threshold, defined as 30% inhibition at 1 μg/mL at the time point indicated.)"
13 nM,2 nM,10.3 nM,686 nM,94 nM,1.8 nM,"CC(C)(C)c1cc(NC(=O)Nc2ccc(Oc3ccnc(Nc4ccc5c(c4)COC5)n3)c3ccccc23)n(-c2ccc(OCCN3CCOCC3)cc2)n1 [Example 60, 1-(3-(tert-butyl)-1-(4-(2-morpholinoethoxy)phenyl)-1H-pyrazol-5-yl)-3-(4-((2-((1,3-dihydroisobenzofuran-5-yl)amino)pyrimidin-4-yl)oxy)naphthalen-1-yl)urea]",1.4 nM,"−ve (−ve and +ve indicate that the value is below and above respectively, the no significant effect threshold, defined as 30% inhibition at 1 μg/mL at the time point indicated.)","−ve (−ve and +ve indicate that the value is below and above respectively, the no significant effect threshold, defined as 30% inhibition at 1 μg/mL at the time point indicated.)"
25 nM,9 nM,1.9 nM,461 nM,86 nM,1.5 nM,"CC(C)(C)c1cc(NC(=O)Nc2ccc(Oc3ccnc(Nc4ccc5ncsc5c4)n3)c3ccccc23)n(-c2ccc(OCCN3CCOCC3)cc2)n1 [Example 80, 1-(4-((2-(benzo[d]thiazol-6-ylamino)pyrimidin-4-yl)oxy)naphthalen-1-yl)-3-(3-(tert-butyl)-1-(4-(2-morpholinoethoxy)phenyl)-1H-pyrazol-5-yl)urea]",1.9 nM,"−ve (−ve and +ve indicate that the value is below and above respectively, the no significant effect threshold, defined as 30% inhibition at 1 μg/mL at the time point indicated.)","−ve (−ve and +ve indicate that the value is below and above respectively, the no significant effect threshold, defined as 30% inhibition at 1 μg/mL at the time point indicated.)"
711 nM,164 nM,1.7 nM,> 1520 nM,> 1520 nM,1.6 nM,"Cc1ccc(-n2nc(C(C)(C)C)cc2NC(=O)Nc2ccc(Oc3ccnc(Nc4cc(Cl)c5[nH]ncc5c4)n3)c3ccccc23)cc1 [Example 28, 1-(3-(tert-butyl)-1-(p-tolyl)-1H-pyrazol-5-yl)-3-(4-((2-((7-chloro-1H-indazol-5-yl)amino)pyrimidin-4-yl)oxy)naphthalen-1-yl)urea]",3.4 nM,"−ve (−ve and +ve indicate that the value is below and above respectively, the no significant effect threshold, defined as 30% inhibition at 1 μg/mL at the time point indicated.)","−ve (−ve and +ve indicate that the value is below and above respectively, the no significant effect threshold, defined as 30% inhibition at 1 μg/mL at the time point indicated.)"
18 nM,4 nM,16.6 nM,> 1420 nM,70 nM,5.3 nM,"CC(C)(C)c1cc(NC(=O)Nc2ccc(Oc3ccnc(Nc4ccc5[nH]ccc5c4)n3)c3ccccc23)n(-c2cccc(CN3CCCC3=O)c2)n1 [Example 48, 1-(4-((2-((1H-indol-5-yl)amino)pyrimidin-4-yl)oxy)naphthalen-1-yl)-3-(3-(tert-butyl)-1-(3-((2-oxopyrrolidin-1-yl)methyl)phenyl)-1H-pyrazol-5-yl)urea]",6.9 nM,"−ve (−ve and +ve indicate that the value is below and above respectively, the no significant effect threshold, defined as 30% inhibition at 1 μg/mL at the time point indicated.)","−ve (−ve and +ve indicate that the value is below and above respectively, the no significant effect threshold, defined as 30% inhibition at 1 μg/mL at the time point indicated.)"
671 nM,23 nM,3.3 nM,5140 nM,369 nM,3.8 nM,"Cc1ccc(-n2nc(C(C)(C)C)cc2NC(=O)Nc2ccc(Oc3ccnc(Nc4ccc5c(c4)OCO5)n3)c3ccccc23)cc1 [Example 33, 1-(4-((2-(benzo[d][1,3]dioxol-5-ylamino)pyrimidin-4-yl)oxy)naphthalen-1-yl)-3-(3-(tert-butyl)-1-(p-tolyl)-1H-pyrazol-5-yl)urea]",2.7 nM,"−ve (−ve and +ve indicate that the value is below and above respectively, the no significant effect threshold, defined as 30% inhibition at 1 μg/mL at the time point indicated.)","−ve (−ve and +ve indicate that the value is below and above respectively, the no significant effect threshold, defined as 30% inhibition at 1 μg/mL at the time point indicated.)"
162 nM,14 nM,5.3 nM,> 16000 nM,177 nM,1.6 nM,"Cc1ccc(-n2nc(C(C)(C)C)cc2NC(=O)Nc2ccc(Oc3ccnc(Nc4cnc5[nH]ncc5c4)n3)c3ccccc23)cc1 [Example 6, 1-(4-((2-((1H-Pyrazolo[3,4-b]pyridin-5-yl)amino)pyrimidin-4-yl)oxy)naphthalen-1-yl)-3-(3-(tert-butyl)-1-(p-tolyl)-1H-pyrazol-5-yl)urea]",1.7 nM,"−ve (−ve and +ve indicate that the value is below and above respectively, the no significant effect threshold, defined as 30% inhibition at 1 μg/mL at the time point indicated.)","−ve (−ve and +ve indicate that the value is below and above respectively, the no significant effect threshold, defined as 30% inhibition at 1 μg/mL at the time point indicated.)"
